Data published in ChEMBL document CHEMBL1201862, “PubChem BioAssay data set” (2004).
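Following 48 hours of exposure in 96-well plates, responses at five concentrations were used to interpolate endpoints linearly. The concentration for 50% growth inhibition is given as GI50.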 Active and inactive are the calls of the source. Rule as the data show it: active = GI50 up to about 1.1 µM and inactive = higher.

Assays:
Experiment in all cases: DTP human tumour cell line panel, 48 h
[1] = system: DMS-114
[2] = system: DLD-1
[3] = system: DMS-273
[4] = system: XF498
[5] = system: KM-20L2
[6] = system: HOP-18
[7] = system: SNB-78
[8] = system: RXF 631
[9] = system: M19-MEL

Compound | GI50 [1] | GI50 [2] | GI50 [3] | GI50 [4] | GI50 [5] | GI50 [6] | GI50 [7] | GI50 [8] | GI50 [9]
COc1ccc2n[se]nc2c1 | > 100 µM (inactive) | > 100 µM (inactive) | > 100 µM (inactive) | > 100 µM (inactive) | > 100 µM (inactive) | < 0.01 µM (active) | > 100 µM (inactive) | 61.4 µM (inactive) | 
N#CCN1CCOCCOCCN(CC#N)CCOCCOCC1 | > 100 µM (inactive) | > 100 µM (inactive) |  |  | > 100 µM (inactive) | > 100 µM (inactive) | > 100 µM (inactive) | > 100 µM (inactive) | > 100 µM (inactive)
Oc1cc(-c2cccc(F)c2)nc2cc3c(cc12)OCO3 | 0.239 µM (active) | 0.252 µM (active) | 0.349 µM (active) | 0.495 µM (active) |  | 5.42 µM (inactive) | 0.343 µM (active) |  | 0.272 µM (active)
Cc1nc2ccccc2c(=O)n1NC(=S)Nc1ccc(Cl)cc1[N+](=O)[O-] | > 100 µM (inactive) |  |  |  | > 100 µM (inactive) |  |  |  | > 100 µM (inactive)
O=C(O)CN(c1ccccc1)S(=O)(=O)c1ccccc1[N+](=O)[O-] |  | > 100 µM (inactive) | > 100 µM (inactive) | > 100 µM (inactive) | > 100 µM (inactive) | > 100 µM (inactive) |  | > 100 µM (inactive) | > 100 µM (inactive)
CC(C)N1CN(C(C(=O)N[C@@H]2C(=O)N3C2SC(C)(C)C3C(=O)O)c2ccccc2)CSC1=S (stereo partly drawn) | 48.5 µM (inactive) | > 100 µM (inactive) | > 100 µM (inactive) | > 100 µM (inactive) | > 100 µM (inactive) | > 100 µM (inactive) | > 100 µM (inactive) |  | > 100 µM (inactive)
O=C(CSc1nnc(Cc2ccccc2)o1)Nc1ccc(Cl)cc1 | 39.4 µM (inactive) | > 100 µM (inactive) | 67.8 µM (inactive) |  | 78.5 µM (inactive) | > 100 µM (inactive) | > 100 µM (inactive) |  | > 100 µM (inactive)
COC(=O)C(/C(=N\O)C(=O)Nc1ccc(Br)cc1)c1nc2ccccc2nc1O (stereo not drawn) | 20.9 µM (inactive) | 35.2 µM (inactive) | 31.1 µM (inactive) |  | 44 µM (inactive) | 52.4 µM (inactive) | 96.6 µM (inactive) | 46.9 µM (inactive) | 26.1 µM (inactive)
C#CC1/C(=C\C(=O)OC)CCCC1O (stereo not drawn) | > 100 µM (inactive) | > 100 µM (inactive) | > 100 µM (inactive) | > 100 µM (inactive) | > 100 µM (inactive) | > 100 µM (inactive) | > 100 µM (inactive) |  | > 100 µM (inactive)
OC(c1ccccc1)(c1ccccc1)c1cccnc1 | > 100 µM (inactive) | > 100 µM (inactive) | > 100 µM (inactive) | > 100 µM (inactive) | > 100 µM (inactive) | > 100 µM (inactive) | > 100 µM (inactive) |  | > 100 µM (inactive)
CCCN(CCCCC(NC(C)=O)C(=O)NCc1ccccc1)C(=O)N(CCCl)N=O (stereo not drawn) | 98.2 µM (inactive) | > 68.9 µM (inactive) | 72.6 µM (inactive) | > 100 µM (inactive) | > 100 µM (inactive) | > 100 µM (inactive) | > 100 µM (inactive) | > 100 µM (inactive) | > 82.6 µM (inactive)
O=C(CC1(O)C(=O)Nc2c(Cl)cc(Cl)cc21)c1ccc(Br)cc1Br (stereo not drawn) | 6.56 µM (inactive) | 5.48 µM (inactive) | 7.05 µM (inactive) | 11.6 µM (inactive) | 18.6 µM (inactive) | 14.4 µM (inactive) | 22.5 µM (inactive) | 4.66 µM (inactive) | 9.04 µM (inactive)
CN1CCN(CN2C(=O)C3C4C=CC(C3C2=O)C2C3C(=O)N(CN5CCN(C)CC5)C(=O)C3C42)CC1 (stereo not drawn) | 17.9 µM (inactive) | 22.5 µM (inactive) |  |  | 25 µM (inactive) |  |  |  | 
C[P+](C)(CC(F)(F)F)c1ccccc1 | > 100 µM (inactive) | > 100 µM (inactive) | > 100 µM (inactive) | < 0.01 µM (active) | > 100 µM (inactive) | > 100 µM (inactive) | > 100 µM (inactive) |  | > 100 µM (inactive)
COc1ccc(NC(=O)c2cc(OC)c(OC)c(OC)c2)cc1 | 25.7 µM (inactive) | 50.6 µM (inactive) | 29.1 µM (inactive) | > 100 µM (inactive) | 32.7 µM (inactive) | > 64.6 µM (inactive) | 42.7 µM (inactive) | > 56.4 µM (inactive) | 41.7 µM (inactive)
COc1cc(OC)c2c(=O)c3c([N+](=O)[O-])cccc3n(C)c2c1 | > 100 µM (inactive) | > 100 µM (inactive) | > 100 µM (inactive) |  | > 100 µM (inactive) | > 100 µM (inactive) | > 100 µM (inactive) |  | > 100 µM (inactive)
COc1ccc(/C=C2\CCC(C)(CN(C)C)C2=O)cc1OC (stereo not drawn) | > 100 µM (inactive) | > 100 µM (inactive) | > 100 µM (inactive) |  | > 100 µM (inactive) | > 100 µM (inactive) | > 100 µM (inactive) | > 100 µM (inactive) | > 100 µM (inactive)
O=[N+]([O-])C(/C=N/Nc1ccccc1)/C=N/Nc1ccccc1 | > 100 µM (inactive) | > 100 µM (inactive) | > 100 µM (inactive) | > 100 µM (inactive) | > 100 µM (inactive) | > 100 µM (inactive) | > 100 µM (inactive) |  | > 100 µM (inactive)
CNC(=O)CN(CC(=O)O)C(=O)NC |  | > 100 µM (inactive) | > 100 µM (inactive) | > 100 µM (inactive) |  |  | > 100 µM (inactive) | > 100 µM (inactive) | > 100 µM (inactive)
